Reference: publication PMC10376326, “Novel Acylselenourea Derivatives: Dual Molecules with Anticancer and Radical Scavenging Activity” (Antioxidants, 2023)

Tests used:
DU-145 cells = experiment: Protective effects against H2O2-induced oxidative stress in DU-145 cells (MTT); assay type: cell-based, human; conditions: for Cell growth inhibition (%): cells without compounds; for Increase-fold: increase-fold of cell survival
Method: Cells were treated with the selected compounds and then oxidative damage to DU-145 cells was induced using different concentrations of H2O2 (200, 250 and 300 µM), and cell viability was assessed by the MTT method. Briefly, 2.5 × 10^4 DU-145 cells per well were added in 96-well plates. After 24 h of incubation, DMSO, 1.I, 2.I, 5.I, 7.II, 10.II, and ascorbic acid were added to each well at two different concentrations (0.0015 mg/mL and 0.0003 mg/mL) and incubated for 1 h. After that, H2O2 was added at the concentrations of 200, 250, and 300 µM, and the cells were incubated for 12 h to induce cell damage. MTT assay was used to measure cell viability. For each treatment, the mean cell viability was calculated from three independent experiments. The DMSO-treated controls were assigned with a cell viability value of 100% (Vcontrol). The results are expressed as a cell growth inhibition % caused by H2O2 and the increased fold of cell survival, as follows: • Cells without compounds, only treated with H2O2: (2) % Cell growth inhibition=Acontrol - Asample/Acontrol × 100
• Cells treated with compounds and H2O2:
(3) % Cell growth inhibition=Asample (compound) - Asample (compound+H2O2)/Acontrol × 100
(4) Increase-fold of cell survival=% cell growth inhibition (H2O2)/% cell growth inhibition (compound+ H2O2)
The standard error of the mean (SEM) was calculated in at least three independent experiments performed in quadruplicates.

[1] = system: HT-29 (colon) cancer cell line; experiment: MTT cell viability assay, HT-29; assay type: cell-based; conditions: Homo sapiens, HT-29, 48 h, read-out: Cell growth %; for activity at 10 µM: HT-29, 10 µM; for activity at 50 µM: HT-29, 50 µM
Method: (§1) Cell lines were purchased from the American Type Culture Collection (ATCC). Cell lines MDA-MB-231, HTB-54, DU-145, and BEAS-2B were cultured in RPMI 1640 medium (Gibco, Thermo Fisher Scientific, Gaithersburg, MD, USA) supplemented with 10% fetal bovine serum (FBS; Gibco), 100 units/mL penicillin, and […] streptomycin (Gibco). HT-29 cell line was grown in McCoy’s 5A (Gibco), 10% FBS, 100 units/mL penicillin, and 100 μg/mL streptomycin. Cells were maintained at 37 °C and 5% CO2. The culture medium was changed every three days.
(§2) The cell viability of each compound was measured by MTT colorimetric assay. Each compound was dissolved in DMSO at a concentration of 0.01 M. Each compound was tested at two different concentrations (10 and 50 µM) in MDA-MB-231 (breast), HTB-54 (lung), DU-145 (prostate), and HT-29 (colon) human cancer cell lines. Serial dilutions were prepared with supplemented culture medium. […] IC50 and selectivity indexes (SI) were determined.
(§3) Briefly, 1 × 10^4 tumor cells per well were grown in 96-well plates for 24 h. Then, these cells were incubated for 48 h with either DMSO (control) or a different concentration of each of the tested compounds. The cell viability was determined by adding 20 μL of MTT two hours and a half before the termination point. After this time, the culture medium was removed. The resulting formazan crystals were dissolved in 50 μL of DMSO, and the absorbance was measured at 570 nm. Results are expressed as % cell growth. The data were obtained from at least three independent experiments performed in quadruplicate.

[2] = DPPH radical scavenging assay; assay type: biochemical; conditions: for DPPH Inhibitory%: acylselenourea analogs
Method: Different methods are available to quantify the antioxidant capacity of natural or novel molecules. Notable among these are the ABTS^•+ and DPPH^• methods, which measure the quenching efficiency in vitro for known concentrations of preformed radicals. In this work, the DPPH^• colorimetric assay was carried out. Measurements were recorded on a BioTeck PowerWave XS spectrophotometer (BioTeck Instruments, Winooski, VT, USA) and data were collected using KCJunior v.1.41. software (BioTeck Instruments, Winooski, VT, USA). Compounds with potent activity were selected to further determine their protective effect against ROS-induced cell death caused by H2O2.
DPPH colorimetric assay was performed to determine the in vitro radical scavenging activity of the acylselenourea derivatives. DPPH assay was performed as described by Svinyarov. For each acylselenourea, a stock solution of 1 mg/mL in dimethyl sulfoxide (DMSO) was made, and these solutions were used to prepare the different concentrations employed in the assay. The compounds were tested at two different concentrations (0.003 and 0.03 mg/mL). Intermediate solutions were prepared in methanol and a volume of 100 µL of each was added to each well of the plate. Then, 100 µL of DPPH^• (previously prepared at a concentration of 0.04 mg/mL in methanol and preserved in the dark) was added to the previous methanolic acylselenourea solutions. The discoloration of the purple radical to the yellow reduced form was followed at 517 nm at different time points (0, 5, 15, 30, 60, 90, and 120 min). Ascorbic acid and trolox were used as positive controls. All measurements were carried out in triplicate. Results are expressed as the percentage of the radicals scavenged, calculated using the following formula: (1) % DPPH radical scavenging=Acontrol - Asample/Acontrol × 100 where Acontrol refers to the absorbance of the negative control and Asample refers to the absorbance of the tested compounds. Results are expressed as percentage of DPPH radical scavenging ± SD.

[3] = system: MDA-MB-231 (breast) cancer cell line; experiment: MTT cell viability assay, MDA-MB-231; assay type: cell-based, human; conditions: Homo sapiens, MDA-MB-231, 48 h; for activity at 10 µM: read-out: Cell growth %, MDA-MB-231, 10 µM, 48 h, MTT; for activity at 50 µM: read-out: Cell growth %, MDA-MB-231, 50 µM, 48 h, MTT
Method: as §1, §2, §3

[4] = system: DU-145 (prostate) cancer cell line; experiment: MTT cell viability assay, DU-145; assay type: cell-based, human; conditions: Homo sapiens, DU-145, 48 h; for activity at 10 µM: read-out: Cell growth %, DU-145, 10 µM, 48 h, MTT; for activity at 50 µM: read-out: Cell growth %, DU-145, 50 µM, 48 h, MTT
Method: as §1, §2, §3

[5] = system: HTB-54 (lung) cancer cell line; experiment: MTT cell viability assay, HTB-54; assay type: cell-based, human; conditions: Homo sapiens, HTB-54, 48 h; for activity at 10 µM: read-out: Cell growth %, HTB-54, 10 µM, 48 h, MTT; for activity at 50 µM: read-out: Cell growth %, HTB-54, 50 µM, 48 h, MTT
Method: as §1, §2, §3

Compound | activity at 10 µM [1] | activity at 50 µM [1] | inhibition ([2]; 0.003 mg/mL, 0 min) | inhibition ([2]; 0.003 mg/mL, 5 min) | inhibition ([2]; 0.003 mg/mL, 15 min) | inhibition ([2]; 0.003 mg/mL, 30 min) | inhibition ([2]; 0.003 mg/mL, 60 min) | inhibition ([2]; 0.003 mg/mL, 90 min) | inhibition ([2]; 0.003 mg/mL, 120 min) | inhibition ([2]; 0.03 mg/mL, 0 min) | inhibition ([2]; 0.03 mg/mL, 5 min) | inhibition ([2]; 0.03 mg/mL, 15 min) | inhibition ([2]; 0.03 mg/mL, 30 min) | inhibition ([2]; 0.03 mg/mL, 60 min) | inhibition ([2]; 0.03 mg/mL, 120 min) | activity at 10 µM [3] | activity at 50 µM [3] | activity at 10 µM [4] | activity at 50 µM [4] | activity at 10 µM [5] | further results
OO [Compound H2O2, H2O2, reference compound] |  |  |  |  |  |  |  |  |  |  |  |  |  |  |  |  |  |  |  |  | Cell growth inhibition (%) (DU-145 cells; only treated with 200 µM H2O2, DU-145, 12 h): 36.9 ± 6.9%; Cell growth inhibition (%) (DU-145 cells; only treated with 250 µM H2O2, DU-145, 12 h): 53.4 ± 6.1%; Cell growth inhibition (%) (DU-145 cells; only treated with 300 µM H2O2, DU-145, 12 h): 66.8 ± 6.3%
C=CCNC(=O)c1cccc(C(=O)NC(=[Se])NCC=C)c1 [Compound 11.II, N^1-allyl-N^3-(allylcarbamoselenoyl)isophthalamide] | 88.1 ± 4.8% | 30.8 ± 4% | 0% | 2.5 ± 1.4% | 5.8 ± 1.2% | 8.6 ± 0.9% | 11.6 ± 1% | 12.8 ± 0.8% | 13.5 ± 0.7% | 11 ± 3% | 38.5 ± 0.3% | 56.8 ± 0.6% | 70.1 ± 1% | 83 ± 1% | 94.3 ± 1.2% | 77.1 ± 10.1% | 14.7 ± 7.8% | 93.8 ± 8% | 22 ± 5.8% | 48.3 ± 6.9% | inhibition ([2]; 0.03 mg/mL, 90 min): 89.6 ± 1.2%; activity at 50 µM [5]: 5.94 ± 4.7%
O=C1O[C@H]([C@@H](O)CO)C(O)=C1O [Asc. Acid, ascorbic acid, reference compound] |  |  | 33.5 ± 0.5% | 33.6 ± 0.4% | 34.5 ± 1.6% | 34.1 ± 1.1% | 34 ± 0.9% | 34 ± 0.8% | 34 ± 0.7% | 96.4 ± 0.2% | 96.4 ± 0.1% | 96.9 ± 0.5% | 96.9 ± 0.5% | 96.6 ± 0.1% | 96.6 ± 0.1% |  |  |  |  |  | Increase-fold (DU-145 cells; compound 0.0003 mg/mL, 200 µM H2O2, DU-145): 4.2 ± 0.4; Increase-fold (DU-145 cells; compound 0.0003 mg/mL, 250 µM H2O2, DU-145): 3.1 ± 0.7; Increase-fold (DU-145 cells; compound 0.0003 mg/mL, 300 µM H2O2, DU-145): 2.2 ± 0.1; Increase-fold (DU-145 cells; compound 0.0015 mg/mL, 200 µM H2O2, DU-145): 3.6 ± 0.3; Increase-fold (DU-145 cells; compound 0.0015 mg/mL, 250 µM H2O2, DU-145): 2.9 ± 0.7; Increase-fold (DU-145 cells; compound 0.0015 mg/mL, 300 µM H2O2, DU-145): 1.5 ± 0.2; inhibition ([2]; 0.03 mg/mL, 90 min): 96.6 ± 0.1%
Cc1c(C)c2c(c(C)c1O)CCC(C)(C(=O)O)O2 (stereo not drawn) [Trolox, trolox, reference compound] |  |  | 28.4 ± 1% | 29.2 ± 1% | 29.2 ± 0.9% | 29.2 ± 0.8% | 29.2 ± 0.8% | 29.2% | 29.1% | 90.8 ± 2.3% | 96.3 ± 0.1% | 96.3 ± 0.2% | 96.3 ± 0.2% | 96.2 ± 0.2% | 96.2 ± 0.2% |  |  |  |  |  | inhibition ([2]; 0.03 mg/mL, 90 min): 96.2 ± 0.2%
C=CCNC(=[Se])NC(=O)c1cccs1 [Compound 2.II, N-(allylcarbamoselenoyl)thiophene-2-carboxamide] | 107 ± 16.2% | 26.2 ± 5.1% | 0% | 6.4 ± 1.1% | 10.4 ± 1.2% | 13 ± 1.2% | 15.2 ± 1.2% | 16 ± 1.2% | 16.3 ± 1.2% | 24.4 ± 3% | 60.7 ± 2.5% | 75.8 ± 3.5% | 87.6 ± 4% | 96.7 ± 0.7% |  | 79.9 ± 9.6% | 11.1 ± 5.9% | 63.4 ± 5.6% | 7.33 ± 4.6% | 35.9 ± 12.1% | time to reach the highest DPPH inhibition ([2]; 0.03 mg/mL): 60 min; DPPH Inhibitory% ([2]; 0.03 mg/mL, 90 min): 97.3 ± 0.8%; activity at 50 µM [5]: 8.52 ± 4.8%
C=CCNC(=[Se])NC(=O)c1ccc2c(c1)OCO2 [Compound 8.II, N-(allylcarbamoselenoyl)benzo[d][1,3]dioxole-5-carboxamide] | 83.5 ± 16.4% | 26.6 ± 3.8% | 1.2 ± 1.4% | 2.8 ± 1.3% | 5 ± 1.2% | 7.1 ± 1.1% | 9.7 ± 1.1% | 10.9 ± 1.2% | 11.7 ± 1.2% | 17.6 ± 4.6% | 39 ± 3% | 55.5 ± 2.1% | 68 ± 1.7% | 81.4 ± 1.3% | 93.7 ± 1.4% | 80.7 ± 6.4% | 15.5 ± 7.6% | 88.6 ± 10.1% | 10.3 ± 4.2% | 51.9 ± 15% | DPPH Inhibitory% ([2]; 0.03 mg/mL, 90 min): 88.2 ± 1.3%; activity at 50 µM [5]: 20 ± 6.6%
C=CCNC(=[Se])NC(=O)c1ccccc1 [Compound 5.II, N-(allylcarbamoselenoyl)benzamide] | 100 ± 16.6% | 23.9 ± 5% | 1.3 ± 1.7% | 4.5 ± 1.7% | 7.5 ± 1.7% | 10.4 ± 1.8% | 13.9 ± 1.9% | 16.2 ± 2% | 17.8 ± 2.1% | 13.5 ± 1.3% | 42.4 ± 1.5% | 62.7 ± 0.8% | 80.2 ± 1.1% | 97.2 ± 0.7% | 97.7 ± 1% | 80.4 ± 8.4% | 15.6 ± 6% | 97.5 ± 18.5% | 10.3 ± 4.9% | 67.6 ± 14.9% | time to reach the highest DPPH inhibition ([2]; 0.03 mg/mL): 60 min; DPPH Inhibitory% ([2]; 0.03 mg/mL, 90 min): 97.4 ± 0.8%; activity at 50 µM [5]: 16.9 ± 4.1%
